Laboratory results reported in PubChem BioAssay AID652241 (Broad Institute, 2013).
Inconclusive results are not listed. Activity calls are given as the source filed them.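 How the source made its calls: active means fitted curve reaches activity 50 in the expected rising direction at or below the top valid tested dose; inconclusive means no clear call, values can overlap the other calls; inactive means activity in the wrong direction, and the rest.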

Each compound was assayed against Virion infectivity factor (Human immunodeficiency virus type 1 group M subtype B (isolate BH10)) + Virion infectivity factor (Human immunodeficiency virus type 1 group M subtype B (isolate BRU/LAI)) + Virion infectivity factor (Human immunodeficiency virus type 1 group M subtype B (isolate PCV12)) + Virion infectivity factor (Human immunodeficiency virus type 1 group M subtype B (isolate HXB2)) (UniProt P69720+P69721+P69722+P69723) (assay: Vif multimerization inhibitor potency, dose response, imaging, HEK293T, cherry-picks (AID 652241;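 further: imaged cell signal that rises when Vif self-association is disrupted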;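 on activity, higher = inhibition: plate controls were median of neutral control wells for no effect and median of positive control wells for full effect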)). Settings: 24 h.
Sequence of Virion infectivity factor (Human immunodeficiency virus type 1 group M subtype B (isolate BH10)) + Virion infectivity factor (Human immunodeficiency virus type 1 group M subtype B (isolate BRU/LAI)) + Virion infectivity factor (Human immunodeficiency virus type 1 group M subtype B (isolate PCV12)) + Virion infectivity factor (Human immunodeficiency virus type 1 group M subtype B (isolate HXB2)) (P69720 whole entry, looked up): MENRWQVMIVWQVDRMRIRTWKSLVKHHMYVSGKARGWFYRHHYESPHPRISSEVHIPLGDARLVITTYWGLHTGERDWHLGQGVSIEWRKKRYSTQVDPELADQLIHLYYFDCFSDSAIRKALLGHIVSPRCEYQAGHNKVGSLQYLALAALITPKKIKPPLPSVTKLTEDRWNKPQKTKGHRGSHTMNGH
Sequence of Virion infectivity factor (Human immunodeficiency virus type 1 group M subtype B (isolate BH10)) + Virion infectivity factor (Human immunodeficiency virus type 1 group M subtype B (isolate BRU/LAI)) + Virion infectivity factor (Human immunodeficiency virus type 1 group M subtype B (isolate PCV12)) + Virion infectivity factor (Human immunodeficiency virus type 1 group M subtype B (isolate HXB2)) (P69721 whole entry, looked up): as the sequence (P69720 whole entry, looked up) above
Sequence of Virion infectivity factor (Human immunodeficiency virus type 1 group M subtype B (isolate BH10)) + Virion infectivity factor (Human immunodeficiency virus type 1 group M subtype B (isolate BRU/LAI)) + Virion infectivity factor (Human immunodeficiency virus type 1 group M subtype B (isolate PCV12)) + Virion infectivity factor (Human immunodeficiency virus type 1 group M subtype B (isolate HXB2)) (P69722 whole entry, looked up): as the sequence (P69720 whole entry, looked up) above
Sequence of Virion infectivity factor (Human immunodeficiency virus type 1 group M subtype B (isolate BH10)) + Virion infectivity factor (Human immunodeficiency virus type 1 group M subtype B (isolate BRU/LAI)) + Virion infectivity factor (Human immunodeficiency virus type 1 group M subtype B (isolate PCV12)) + Virion infectivity factor (Human immunodeficiency virus type 1 group M subtype B (isolate HXB2)) (P69723 whole entry, looked up): as the sequence (P69720 whole entry, looked up) above

Row | Structure (SMILES) | AC50 [µM]
1 | Cc1cc2cc(C#N)c(SCC(=O)Nc3nonc3C)nc2cc1C | 8.45
2 | COc1ccc(-c2cc(C(F)(F)F)n3nc(C(=O)NCc4ccco4)c(Cl)c3n2)cc1 | 8.52
3 | COc1ccc2cc(-c3cc(C(=O)OCC(=O)NC4CCS(=O)(=O)C4)c4ccccc4n3)ccc2c1 (stereo not given) | 14.7

Same assay, conditions: 24 h, at 19.5 µM (top of the series)

Row | Structure (SMILES) | activity, higher = inhibition
4 | Cc1nn2c(COc3ccc(NC(=O)c4ccccc4Cl)cc3)nnc2c2ccccc12 | inactive
5 | CC(Cc1ccc(O)cc1)NCC(O)c1cc(O)cc(O)c1 (stereo not given) | inactive
6 | Cc1ccc(C(=O)COC(=O)c2cc(=O)[nH]c3ccccc23)cc1C | inactive
7 | C=CCN1C(=O)/C(=C/c2ccc(-c3ccc(F)cc3)o2)SC1=S | inactive
8 | O=C(Nc1ccnc(-c2cccnc2)n1)c1cccs1 | inactive
9 | Cc1nc(SCC(=O)N2CCCC2=O)nc(C)c1C | inactive
10 | NCCCC[C@H](N[C@@H](CCc1ccccc1)C(=O)O)C(=O)N1CCC[C@H]1C(=O)O | inactive
